Assay results: publication PMC10906223 (JCI Insight, 2024)
Several values for one entry are separate records, joined by “and”; a condition that tells them apart may be missing. Identical values can stand only once.

Key:
[1] = test system: STZ-induced diabetic mice; assay: Blood glucose in STZ-induced diabetic mice, once-daily oral WCDD301; format: in vivo, mouse; parameters: Blood glucose: unit: mg/dL; conditions: for Blood glucose: WCDD301 10 mg/kg oral once daily, 10 mg/kg
Method: Six cohorts of C57BL/6 mice (n = 10 each, equal numbers of females and males; the Jackson Laboratory) were fasted for 5 hours and injected intraperitoneally with 40 mg/kg STZ solution (MilliporeSigma, catalog 572201) for 5 consecutive days. STZ solution (40 mg/mL) was prepared within 5 minutes before injection using freshly prepared citrate buffer (0.1 M, pH 4.5). Nine days after the last injection, blood glucose levels were measured for 2 consecutive days, and those animals with constant values of 300 ± 20 mg/dL were considered as having early severe hyperglycemia.
We prepared sustained time-release pearls for oral administration in the mouse models. To this end, we combined FDA-approved excipients of Eastman BioSustane SAIB NF (product code: 41271-00, sample distribution from Eastman Company, Kingsport, Tennessee, USA; provided by Phillip Cook) and Agar (Lamda Biotech, catalog C110) at the ratio of 1:1.45 (w/w). We also prepared another type of sustained time-release pearl by mixing SAIB, Agar, and L (-) malic acid (MilliporeSigma, catalog 202-601-5) at the ratio of 1:1.4:0.2 (w/w/w). A homogenous paste mixture was prepared, and pearls were formed with 50–60 mg weight and approximately 2 mm diameter by pinching off the mixture and manually rolling.
We preweighed WCDD301 into microfuge tubes and reconstituted it using deionized water. Using a 10 μL pipette tip, we placed the calculated dose of WCDD301 (at the volume range of 1–1.5 μL) within the center of pearls. WCDD301 was placed into pearls 30–45 minutes before administration. For oral administration of pearls, we designed an applicator using a disposable plastic transfer pipette and syringe plunger lubricated with olive oil. Food intake and body weight in each experimental group (diabetic WCDD301-treated, diabetic placebo-treated, and nondiabetic placebo-treated NOD mice) were monitored daily for 4 weeks. Urine glucose was measured from individually caged NOD mice (nondiabetic placebo treated n = 2, diabetic placebo treated n = 2, and diabetic WCDD301 treated n = 4, 21–23 weeks old) with metabolic cages. Urine glucose was monitored every 24 hours for 10 days by semiquantitative measurements (P-STICKS, Millpledge Veterinary).
We applied the following therapeutic regimens in the fed state for oral dosing of pearls containing WCDD301. The therapeutic regimen for diabetic NOD mice with moderate hyperglycemia (n = 6–9; 6 females/3 males) or nondiabetic ones with blood glucose levels of < 140 mg/dL (females, n = 5) was dose 7.5 mg/kg, dosage once a day, and excipient SAIB-Agar, 50–60 mg. The therapeutic regimen for STZ-induced diabetic mice with early severe hyperglycemia (n = 3, placebo group; n = 4 treatment group, females) was dose 10 mg/kg, dosage once a day, and excipient SAIB-Agar-malic acid, 50–60 mg.

[2] = test system: mouse dispersed islet cells; assay: Immunofluorescence: EphA4 intensity in glucagon+ mouse dispersed islet cells; format: cell-based;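 on EphA4 intensity: ImageJ intensity within ROI drawn around each glucagon+ cell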
Method: Coverslips were treated with WCDD301, preclustered Ephrin-A5 Fc, or preclustered Fc in the following sequential order: KRBH (11 mM glucose, 30 minutes), KRBH (1 mM glucose, 60 minutes), KRBH (1 mM glucose, 30 minutes), and KRBH (11 mM glucose, 60 minutes). After treatment, coverslips were washed once in PBS, fixed in 2% paraformaldehyde in PBS (30 minutes), and again washed in PBS. […] Following wash in PBS, coverslips were incubated in a mixture of Alexa Fluor 555 Phalloidin (Cell Signaling Technology, catalog 8953) and secondary antibodies (goat anti-rabbit Alexa Fluor 488, catalog A-21094, 1:1,000, Molecular Probes; and goat anti-mouse Alexa Fluor 633, catalog A21052, 1:1,000, Life Technologies) for 1 hour at RT. Both primary and secondary antibodies were diluted in blocking buffer containing 0.05% Tween 20. Coverslips were washed using PBS and counterstained by using DAPI (1:1,000) for 10 minutes. Following 2 washes in PBS, coverslips were mounted on glass slides using ProLong Glass Antifade Mountant (Invitrogen, catalog P36980). Images were captured using the Zeiss LSM880 microscope with a Plan-Apochromat 63× 1.4 NA objective lens by setting dual-band dichroic/filter for 405, 488, 561, and 633 nm laser excitation. For each slide, 25–30 fields of view were scanned, and in each field of view, 3–5 cells were imaged. […] Values of intensity were compared among groups using 1-way ANOVA, α = 0.05.

[3] = test system: isolated islets of donors with T1D; assay: Glucagon secretion from isolated islets of donors with T1D; format: cell-based, human; conditions: for Secretion of glucagon: isolated islets, T1D donors, one value per donor, Figure 2G
Method: The Integrated Islet Distribution Program provided us human donor islets with their characteristics (Supplemental Table 6). Islets were centrifuged at 500g for 3 minutes, resuspended in CMRL 1066 medium (Gibco, catalog 1150-037) containing 11 mM glucose, and rested in an incubator overnight.
For the hormone secretion assay, islets or dispersed islet cells were adapted in KRBH buffer containing 11 mM glucose for 1 hour. Then, after 2 washes in HBSS containing 11 mM glucose, islets or cells were treated in the following sequential order in the presence or absence of WCDD301: incubation in KRBH (1 mM glucose, 30 minutes) followed by medium collection, incubation in KRBH (11 mM glucose, 30 minutes) followed by medium collection.

[4] = Plasma stability assay, CD-1 mouse plasma; format: in vitro ADME; conditions: for Ln (% Remaining): mouse plasma, 37°C, Figure 5B
Method: Pooled frozen plasma of CD-1 mice (n = 20; catalog MSE00PLK2M2N, Beijing Vital River Laboratory Animal Technology) or humans (n = 6, catalog […]2P2N, Bioreclamation IVT), equal numbers of males and females, was thawed in a 37°C water bath, and residual clots were removed by centrifugation (500g for 5 minutes). Plasma (98 μL) was aliquoted in each well of 96-well reaction plates using an Apricot automation workstation. WCDD301 (100 μM) or propantheline bromide (100 μM, as a positive control) was added (2 μL/well) to sets of wells assigned to blank or time points (T0, T10, T30, T60, and T120 minutes) and incubated at 37°C. At each time point, the reaction was stopped by adding stop solution (500 μL; a mixture of 200 ng/mL of tolbutamide and labetalol in acetonitrile), mixed thoroughly, sealed, shaken (20 minutes), and centrifuged (1,750g, 4°C, 20 minutes). A total of 150 μL of the supernatant from each well of the reaction plate was transferred to its corresponding bioanalysis plate for LC-MS/MS analysis. The remaining level (%) of the WCDD301 was calculated using the following equation: remaining (%) = (PAR at each time point/PAR at T0) × 100. PAR stands for the peak area ratio of the WCDD301 versus internal standard.

With `CC(=O)OCC(N)(COC(C)=O)COC(C)=O` [WCDD301, 2-(acetoxymethyl)-2-aminopropane-1,3-diyl diacetate] the Effect on hyperglycemia ([1]; 4-week dosing) was “normalized hyperglycemia”, the Blood glucose ([1]; Week 1, per mouse, before dosing 277-300, Figure 6F) was 205 and 210 and 206 and 240 and the Blood glucose ([1]; Week 2, per mouse, Figure 6F) was 180 and 170 and 145 and 210. The Blood glucose ([1]; Week 3, per mouse, Figure 6F) was 145 and 150 and 135 and 156, the Blood glucose ([1]; Week 4, per mouse, Figure 6F) was 125 and 119 and 121 and 130 and the “Effect on EphA4 intensity” value ([2]; dispersed mouse islet cells) was “increased EphA4 intensity”. The EphA4 intensity ([2]; mouse cells, individual values, Figure 3H) was 35.0 and 29.0 and 43.3 and 17.8 and 36.0 and 30.0 and 27.0 and 37.0 and 31.0 and 41.7 and 27.2 and 38.0 and 32.0 and 32.1 and 39.0 and 33.0 and 19.7, the “Effect on glucagon secretion” value ([3]; islets from donors with long-standing T1D) was “reduced glucagon secretion” and the Secretion of glucagon ([3]; 1 mM glucose) was 39.575 and 41.23. For the same compound, the Secretion of glucagon ([3]; 11 mM glucose) was 36.8 and 30.22, the half-life at 2 µM ([4]; both sexes, CD-1, mouse, plasma) was 1.75 h and the “Ln (% Remaining)” value ([4]; 10 min) was -0.4. The “Ln (% Remaining)” value ([4]; 60 min) was -0.55 and the “Ln (% Remaining)” value ([4]; 120 min) was -0.94.
